Values joined by “and” are separate entries in the source; they are usually repeats but may differ in a detail not shown here. Equal values may be shown once. Read-outs that look alike come from different tables or passages of the source.
How the values were obtained:
[1] = molecular target: T1, human DNA polymerase alpha (Homo sapiens, UniProt P09884); experiment: Human cellular DNA polymerase alpha assay; format: biochemical
T1 sequence (P09884 1-1462): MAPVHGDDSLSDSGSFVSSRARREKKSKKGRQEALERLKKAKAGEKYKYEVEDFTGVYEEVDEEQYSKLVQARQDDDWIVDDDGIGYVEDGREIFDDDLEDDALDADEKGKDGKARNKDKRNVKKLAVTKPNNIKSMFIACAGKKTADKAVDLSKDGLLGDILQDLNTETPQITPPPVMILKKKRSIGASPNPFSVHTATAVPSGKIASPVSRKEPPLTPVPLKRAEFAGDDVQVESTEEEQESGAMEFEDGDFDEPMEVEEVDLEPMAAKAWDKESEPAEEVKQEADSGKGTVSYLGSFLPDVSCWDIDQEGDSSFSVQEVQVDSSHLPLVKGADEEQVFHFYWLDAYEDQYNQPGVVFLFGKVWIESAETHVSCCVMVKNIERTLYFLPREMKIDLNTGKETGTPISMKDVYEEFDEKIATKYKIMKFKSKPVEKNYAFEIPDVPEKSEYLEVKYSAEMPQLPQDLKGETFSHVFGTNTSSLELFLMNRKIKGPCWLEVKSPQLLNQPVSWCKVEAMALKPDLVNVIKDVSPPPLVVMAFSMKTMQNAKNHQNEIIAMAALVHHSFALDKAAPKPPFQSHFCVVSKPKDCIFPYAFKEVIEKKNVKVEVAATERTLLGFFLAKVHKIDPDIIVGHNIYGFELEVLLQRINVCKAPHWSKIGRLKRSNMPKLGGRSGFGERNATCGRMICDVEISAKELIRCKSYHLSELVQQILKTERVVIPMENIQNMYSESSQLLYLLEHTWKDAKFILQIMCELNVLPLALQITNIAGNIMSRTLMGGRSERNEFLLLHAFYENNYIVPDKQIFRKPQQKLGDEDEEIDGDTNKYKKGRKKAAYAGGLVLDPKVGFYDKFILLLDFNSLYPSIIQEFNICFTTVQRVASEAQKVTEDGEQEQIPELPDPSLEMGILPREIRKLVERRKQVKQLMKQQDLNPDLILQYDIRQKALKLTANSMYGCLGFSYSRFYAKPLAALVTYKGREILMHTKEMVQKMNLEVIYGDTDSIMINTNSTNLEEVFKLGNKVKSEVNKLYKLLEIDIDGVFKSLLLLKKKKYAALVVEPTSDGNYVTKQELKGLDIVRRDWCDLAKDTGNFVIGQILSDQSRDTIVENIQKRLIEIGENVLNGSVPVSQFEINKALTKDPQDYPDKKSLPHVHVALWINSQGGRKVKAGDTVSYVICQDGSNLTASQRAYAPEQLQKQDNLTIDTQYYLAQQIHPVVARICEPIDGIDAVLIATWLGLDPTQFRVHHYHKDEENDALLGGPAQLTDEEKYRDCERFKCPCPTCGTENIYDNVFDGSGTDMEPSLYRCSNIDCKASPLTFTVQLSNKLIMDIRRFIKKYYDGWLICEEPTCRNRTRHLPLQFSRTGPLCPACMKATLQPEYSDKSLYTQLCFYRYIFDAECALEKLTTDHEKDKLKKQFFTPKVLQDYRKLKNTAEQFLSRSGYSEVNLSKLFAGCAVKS
Source text: (§1) HIV RT, like other viral polymerase, shares limited structural homology with the cellular DNA polymerases responsible for normal nuclear and mitochondrial DNA synthesis and repair. This raises the formal possibility that inhibitors of HIV RT might inhibit cellular polymerases, resulting in cellular toxicity. In particular, inhibition of polymerase gamma has the potential to result in mitochondrial toxicity. The ability of Compound I and Compound III to inhibit cellular DNA polymerases was assessed using standard in vitro assays (Table 5).

[2] = molecular target: human DNA polymerase beta (Homo sapiens, UniProt P06746); experiment: Human cellular DNA polymerase beta assay; format: biochemical
Source text: as §1

HIV-1 NL4-3 K103N virus = experiment: microbe, parasite or virus in culture; format: cell-based; conditions: for EC50: Human immunodeficiency virus 1, NL43, MT4, read-out: Average EC50 Values ± Standard Deviation, K103N; for Fold Change, K103N: Table 11, NL4-3
HIV-1 W.T. (BH10) virus = experiment: microbe, parasite or virus in culture; format: cell-based; conditions: for Fold Change, W.T.: Table 13, MT-2
Source text: The HIV-1 strains used were BH10, NL4-3 and IIIB: the cell lines were U-937 cells (human monocytes derived from a histiocytic lymphoma); MOLT-4 cells (a human T lymphoblastic leukemia cell line); H-9 cells (human lymphoblastic T cells); and MT-2 and MT-4 human leukemia T cells.

HIV-1 IIIB in H9 cells = experiment: Drug susceptibility assay, IIIB in H9 cells; format: cell-based; conditions: Human immunodeficiency virus 1, IIIB
Source text: (§2) The virus and host-cell dependency of Compound I, Compound III and control drugs was further examined in drug susceptibility assays performed across 3 different subtype B wild-type HIV-1 strains and 5 different cell lines.

[3] = tested on: HIV-1 W.T. strains BH10, NL4-3 and IIIB; experiment: Drug susceptibility assays, 3 W.T. strains in 5 human cell lines (ranges); format: cell-based
Source text: as §2

HIV-1 BH10 W.T. = experiment: Anti-HIV-1 BH10 W.T. activity in presence of HS or AAG; format: cell-based; conditions: for Fold Change, 10% Fetal Bovine Serum / Fold Change, 45% Human Serum / Fold Change, 45% Human Serum + AAG / Fold Change, 10% Fetal Bovine Serum + AAG: Table 20; for Fold Change, 45% Human Serum / Fold Change, 45% Human Serum + AAG / Fold Change, 10% Fetal Bovine Serum + AAG: vs 10% FBS only
[4] = Cellular cytotoxicity, 4 days, MTS, H9; format: cell-based; conditions: human, Table 21, read-out: Average CC50 Values ± Standard Deviation, H9
Method: (§3) Cell viability was measured by standard MTT or MTS staining.
Following drug exposure for 4 days, cell viability was measured by MTS staining and CC50 values were determined. Drug concentrations ranged from 0.005 μM to 100 μM.

[5] = Longer term cytotoxicity, 12 days, MTS, HuH7; conditions: human
Method: as §3
(§4) Cells were repeatedly treated with a range of drug concentrations (0.005 to 100 μM) for 9 (HeLa) or 12 days (HuH7, HepG2).

[6] = Longer term cytotoxicity, 12 days, MTS, HepG2; conditions: human
Method: as §3, §4

[7] = Longer term cytotoxicity, HeLa, HuH7 and HepG2 (ranges); conditions: human, HuH7 and HepG2, 9-12 day testing
Method: as §3, §4

[8] = Human immunodeficiency virus 1, MT2, read-out: Average EC50 Values ± Standard Deviation, W.T. (BH10)
[9] = Human immunodeficiency virus 1, MT2, read-out: Average EC50 Values ± Standard Deviation, host MT-2, virus BH10
[10] = Table 5, read-out: Average IC50 Values ± Standard Deviation, DNA Pol Alpha
[11] = Table 5, read-out: Average IC50 Values ± Standard Deviation, DNA Pol Beta
[12] = H9, Table 17, read-out: Average EC50 Values ± Standard Deviation, host H9, virus IIIB
[13] = Human immunodeficiency virus 1, Table 17; over all virus/host combinations; read-out: Mean Activity Range
[14] = Human immunodeficiency virus 1; read-out: EC50 range, 3 HIV-1 viral strains in 5 host human cell lines
[15] = Human immunodeficiency virus 1, Table 19, AAG 1 mg/ml, read-out: Average EC50 Values ± Standard Deviation, 10% Fetal Bovine Serum + AAG
[16] = Human immunodeficiency virus 1, Table 19, AAG 1 mg/ml, read-out: Average EC50 Values ± Standard Deviation, 45% Human Serum + AAG
[17] = Human immunodeficiency virus 1, Table 19, read-out: Average EC50 Values ± Standard Deviation, 10% Fetal Bovine Serum
[18] = Human immunodeficiency virus 1, Table 19, read-out: Average EC50 Values ± Standard Deviation, 45% Human Serum
[19] = Human immunodeficiency virus 1, text b887, read-out: mean EC50 values, 45% HS+AAG
[20] = H9 cells (lymphoblastic T cells)
[21] = HuH7 and HepG2 cells (range over the three lines)

SMILES | Average IC50 Values ± Standard Deviation, DNA Pol Alpha ([1]; Table 5) | Average IC50 Values ± Standard Deviation, DNA Pol Beta ([2]; Table 5) | EC50 (HIV-1 NL4-3 K103N virus) [nM] | Fold Change, K103N (HIV-1 NL4-3 K103N virus) [fold] | EC50 (HIV-1 W.T. (BH10) virus; [8]) [nM] | EC50 (HIV-1 W.T. (BH10) virus; [9]) [nM] | Fold Change, W.T. (HIV-1 W.T. (BH10) virus) [fold] | Fold Change, 10% Fetal Bovine Serum (HIV-1 BH10 W.T.) [fold] | Fold Change, 45% Human Serum (HIV-1 BH10 W.T.) [fold] | Fold Change, 45% Human Serum + AAG (HIV-1 BH10 W.T.) | IC50 [1, 10] [µM] | IC50 [2, 11] [µM] | EC50 (HIV-1 IIIB in H9 cells; [12]) [nM] | EC50 [3, 13] [nM] | EC50 [3, 14] [nM] | EC50 (HIV-1 BH10 W.T.; [15]) [nM] | EC50 (HIV-1 BH10 W.T.; [16]) [nM] | EC50 (HIV-1 BH10 W.T.; [17]) [nM] | EC50 (HIV-1 BH10 W.T.; [18]) [nM] | EC50 (HIV-1 BH10 W.T.; [19]) [nM] | other results
CO[P@](=O)(c1cc(C)cc(/C=C/C#N)c1)c1c(C(N)=O)[nH]c2ccc(Cl)c(F)c12 [Compound I, (2-Carbamoyl-5-chloro-4-fluoro-1H-indol-3-yl)-[3-((E)-2-cyano-vinyl)-5-methyl-phenyl]-(R)-phosphinic acid methyl ester] | did not reach an IC50 | did not reach an IC50 | 1.4 ± 0.4 | 0.7 ± 0.2 | 0.9 ± 0.6 | 0.9 ± 0.6 | 1 | 1 | 15.9 ± 11.1 | 24.8 fold and 19.5 fold |  |  |  |  |  |  |  |  |  |  | IC50 ([1]; Average IC50 Values ± Standard Deviation, DNA Pol Alpha, Table 5): 146 ± 44.5 µM; IC50 ([1]; Mean IC50 Values ± Standard Deviation, DNA Pol Alpha, Table 6, N=4): 146 ± 44.5 µM; IC50 ([2]; Average IC50 Values ± Standard Deviation, DNA Pol Beta, Table 5): ≥ 422 µM; IC50 ([2]; Mean IC50 Values ± Standard Deviation, DNA Pol Beta, Table 6, N=4): 422 ± 150 µM; EC50 (HIV-1 IIIB in H9 cells; H9, read-out: Average EC50 Values ± Standard Deviation, host H9, virus IIIB): 0.6 ± 0.1 nM; EC50 ([3]; Human immunodeficiency virus 1, read-out: EC50 range, 3 HIV-1 viral strains in 5 host human cell lines): 0.5 to 2 nM; EC50 ([3]; Human immunodeficiency virus 1, read-out: Mean Activity Range, Table 17; over all virus/host combinations): 0.5 nM; EC50 (HIV-1 BH10 W.T.; Human immunodeficiency virus 1, read-out: Average EC50 Values ± Standard Deviation, 10% Fetal Bovine Serum): 1.1 ± 0.4 nM; EC50 (HIV-1 BH10 W.T.; Human immunodeficiency virus 1, read-out: Average EC50 Values ± Standard Deviation, 10% Fetal Bovine Serum + AAG): 2.9 ± 1.2 nM; EC50 (HIV-1 BH10 W.T.; Human immunodeficiency virus 1, read-out: Average EC50 Values ± Standard Deviation, 45% Human Serum): 14.6 ± 6.3 nM; EC50 (HIV-1 BH10 W.T.; Human immunodeficiency virus 1, read-out: Average EC50 Values ± Standard Deviation, 45% Human Serum + AAG): 19 ± 1.7 nM; EC50 (HIV-1 BH10 W.T.; Human immunodeficiency virus 1, read-out: mean EC50 values, 45% HS+AAG): 19 nM; Fold Change, 10% Fetal Bovine Serum + AAG (HIV-1 BH10 W.T.; listed as Cmpd I): 2.7 ± 0.7 fold; Fold Change, 45% Human Serum + AAG (HIV-1 BH10 W.T.; listed as Cmpd I): 19.5 ± 7.6 fold; CC50 at 4 days [4]: 20 ± 1.6 µM; CC50 at 12 days [5]: 23.5 ± 1.61 µM; CC50 at 12 days [6]: 25.7 ± 3.26 µM; CC50 ([7]; CC50 range): 23.5 to 31.5 µM
CO[P@](=O)(c1cc(C)cc(/C=C/C#N)c1)c1c(C(N)=O)[nH]c2ccc(Cl)cc12 [Compound III, (2-Carbamoyl-5-chloro-1H-indol-3-yl)-[3-((E)-2-cyano-vinyl)-5-methyl-phenyl]-(R)-phosphinic acid methyl ester] | did not reach an IC50 | did not reach an IC50 | 1.5 ± 0.3 | 0.9 ± 0.2 | 1.1 ± 0.4 | 1.1 ± 0.4 | 1 | 1 | 17.0 ± 6.3 | 19.5 fold and 24.8 fold | 159 ± 84.3 | ≥ 479 | 0.5 ± 0.2 | 0.5 | 0.5 to 1.7 | 2.8 ± 0.4 | 32.6 ± 7.3 | 1.2 ± 0.4 | 21.9 ± 11.7 | 32.6 | Fold Change, 10% Fetal Bovine Serum + AAG (HIV-1 BH10 W.T.; listed as Cmpd III): 2.1 ± 0.5 fold; Fold Change, 45% Human Serum + AAG (HIV-1 BH10 W.T.; listed as Cmpd III): 24.8 ± 3.8 fold; CC50 at 4 days [4, 20]: 31.3 ± 5.2 µM; CC50 at 12 days ([5]; HuH7 liver cells): 31.5 ± 3.37 µM; CC50 at 12 days ([6]; HepG2 liver cells): 23.5 ± 1.51 µM; CC50 [7, 21]: 23.5 to 31.5 µM
O=C1Nc2ccc(Cl)cc2C(C#CC2CC2)(C(F)(F)F)O1 (stereo not drawn) [EFV, 6-chloro-4-cyclopropylethynyl-4-trifluoromethyl-1,4-dihydro-2H-3,1-benzoxazin-2-one, reference compound] | did not reach an IC50 | did not reach an IC50 | 61.2 ± 33.8 |  | 0.8 ± 0.2 | 0.8 ± 0.2 |  |  |  |  | 109 ± 40.9 | 314 ± 177 | 1.5 ± 0.6 | 0.8 ± 2.3 | 0.4 to 3.2 | 5 ± 2.3 | 11.6 ± 7.4 | 1.6 ± 0.5 | 11.5 ± 3.9 | 11.6 | IC50 ([1]; Table 6, N=4, read-out: Mean IC50 Values ± Standard Deviation, DNA Pol Alpha): 109 ± 40.9 µM; IC50 ([2]; Table 6, N=4, read-out: Mean IC50 Values ± Standard Deviation, DNA Pol Beta): 314 ± 177 µM; CC50 at 4 days [4, 20]: 50 ± 9 µM; CC50 at 12 days ([5]; HuH7 liver cells): 75.7 ± 12.4 µM; CC50 at 12 days ([6]; HepG2 liver cells): 80.6 ± 12.1 µM; CC50 [7, 21]: 48 to 81 µM

— patent US8486991B2, “Enantiomerically pure phosphoindoles as HIV inhibitors” (Idenix Pharmaceuticals, Inc., priority 2006, dated 2013)
